# Reference: US11370798B2 (Vertex Pharmaceuticals Incorporated, priority 2012, dated 2022)
# Tested on: HCT116 colorectal cancer cells
# Experiment: Cisplatin sensitization assay (96 h cell viability MTS);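 further: Test-compound concentration that lowers the Cisplatin IC50 by a set fold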
# Assay type: cell-based
# Settings: compound and Cisplatin added simultaneously, Cisplatin sensitization value
# Outline: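 Viability read by MTS (1 h at 37° C) after 96 h co-exposure at 37° C, 5% CO2. Test compound and cisplatin were dosed simultaneously in a full concentration matrix, each 2-fold serially diluted from 10 μM final; sensitization values binned in μM.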
row,SMILES,Cisplatin Sensitization Assay
1,"Nc1nn2cc(F)cnc2c1C(=O)Nc1cnccc1N1CCN(S(=O)(=O)C2CCOC2)CC1 (stereo not shown) [I-N-179, 2-amino-6-fluoro-N-(4-(4-((tetrahydrofuran-3-yl)sulfonyl)piperazin-1-yl)pyridin-3-yl)pyrazolo[1,5-a]pyrimidine-3-carboxamide]",+++ (Cisplatin sensitization value of <0.02 μM)
2,"Nc1nn2cc(F)cnc2c1C(=O)Nc1cnccc1N1CCN(S(=O)(=O)C2COC2)CC1 [I-N-195, 2-amino-6-fluoro-N-(4-(4-(oxetan-3-ylsulfonyl)piperazin-1-yl)pyridin-3-yl)pyrazolo[1,5-a]pyrimidine-3-carboxamide]",+++ (Cisplatin sensitization value of <0.02 μM)
3,"CN1CCC(Oc2ccncc2NC(=O)c2c(N)nn3cc(CC#N)cnc23)CC1 [I-O-23, 2-amino-6-(cyanomethyl)-N-(4-((1-methylpiperidin-4-yl)oxy)pyridin-3-yl)pyrazolo[1,5-a]pyrimidine-3-carboxamide]",+++ (Cisplatin sensitization value of <0.02 μM)
4,"CN1CCN(CC2CCN(c3c(F)cncc3NC(=O)c3c(N)nn4cc(F)cnc34)CC2)CC1=O [I-N-171, 2-amino-6-fluoro-N-(5-fluoro-4-(4-((4-methyl-3-oxopiperazin-1-yl)methyl)piperidin-1-yl)pyridin-3-yl)pyrazolo[1,5-a]pyrimidine-3-carboxamide]",+++ (Cisplatin sensitization value of <0.02 μM)
5,"COC1CN(C2CCN(c3ccncc3NC(=O)c3c(N)nn4cc(Cl)cnc34)CC2)C1 [I-N-107, 2-amino-6-chloro-N-(4-(4-(3-methoxyazetidin-1-yl)piperidin-1-yl)pyridin-3-yl)pyrazolo[1,5-a]pyrimidine-3-carboxamide]",+++ (Cisplatin sensitization value of <0.02 μM)
6,"N#CCc1cnc2c(C(=O)Nc3cnccc3N3CCC(O)CC3)c(N)nn2c1 [I-N-83, 2-amino-6-(cyanomethyl)-N-(4-(4-hydroxypiperidin-1-yl)pyridin-3-yl)pyrazolo[1,5-a]pyrimidine-3-carboxamide]",++ (Cisplatin sensitization value>0.02 μM but <0.2 μM)
7,"CN(C)C(=O)[C@H]1CC[C@@H](Oc2ccncc2NC(=O)c2c(N)nn3cc(F)cnc23)CC1 [I-O-17, 2-amino-N-(4-(((1s,4s)-4-(dimethylcarbamoyl)cyclohexyl)oxy)pyridin-3-yl)-6-fluoropyrazolo[1,5-a]pyrimidine-3-carboxamide]",+++ (Cisplatin sensitization value of <0.02 μM)
8,"Nc1nn2cc(F)cnc2c1C(=O)Nc1cncc(F)c1N1CCC(C(=O)N2CCC2)CC1 [I-G-8, 2-amino-N-(4-(4-(azetidine-1-carbonyl)piperidin-1-yl)-5-fluoropyridin-3-yl)-6-fluoropyrazolo[1,5-a]pyrimidine-3-carboxamide]",+++ (Cisplatin sensitization value of <0.02 μM)
9,"Nc1nn2cc(F)cnc2c1C(=O)Nc1cncc(F)c1N1CCN(C2CCOCC2)CC1 [I-N-121, 2-amino-6-fluoro-N-(5-fluoro-4-(4-(tetrahydro-2H-pyran-4-yl)piperazin-1-yl)pyridin-3-yl)pyrazolo[1,5-a]pyrimidine-3-carboxamide]",+++ (Cisplatin sensitization value of <0.02 μM)
10,"Nc1nn2cc(F)cnc2c1C(=O)Nc1cnccc1N1CCC(C(=O)N2CC(F)C2)CC1 [I-G-82, 2-amino-6-fluoro-N-(4-(4-(3-fluoroazetidine-1-carbonyl)piperidin-1-yl)pyridin-3-yl)pyrazolo[1,5-a]pyrimidine-3-carboxamide]",+++ (Cisplatin sensitization value of <0.02 μM)
11,"Nc1nn2cc(F)cnc2c1C(=O)Nc1cncc(F)c1N1CCC(C(=O)N2CC3CCC(C2)N3)CC1 [I-G-44, N-(4-(4-(3,8-diazabicyclo[3.2.1]octane-3-carbonyl)piperidin-1-yl)-5-fluoropyridin-3-yl)-2-amino-6-fluoropyrazolo[1,5-a]pyrimidine-3-carboxamide]",+++ (Cisplatin sensitization value of <0.02 μM)
12,"Nc1nn2cc(Cl)cnc2c1C(=O)Nc1cnccc1N1CCNCC1 [I-N-88, 2-amino-6-chloro-N-(4-(piperazin-1-yl)pyridin-3-yl)pyrazolo[1,5-a]pyrimidine-3-carboxamide]",++ (Cisplatin sensitization value>0.02 μM but <0.2 μM)
13,"Nc1nn2cc(F)cnc2c1C(=O)Nc1cncc(F)c1N1CCC(C(=O)N2CCNC3CC32)CC1 (stereo not shown) [I-G-62, N-(4-(4-(2,5-diazabicyclo[4.1.0]heptane-2-carbonyl)piperidin-1-yl)-5-fluoropyridin-3-yl)-2-amino-6-fluoropyrazolo[1,5-a]pyrimidine-3-carboxamide]",+++ (Cisplatin sensitization value of <0.02 μM)
14,"CN(C)[C@H]1CCN(c2ccncc2NC(=O)c2c(N)nn3cc(Cl)cnc23)C[C@@H]1O [I-N-35, 2-amino-6-chloro-N-(4-((3S,4S)-4-(dimethylamino)-3-hydroxypiperidin-1-yl)pyridin-3-yl)pyrazolo[1,5-a]pyrimidine-3-carboxamide]",+ (Cisplatin sensitization value>0.2 μM but <5 μM)
15,"CS(=O)(=O)c1ccc(-c2ccncc2NC(=O)c2c(N)nn3cc(F)cnc23)cc1 [I-C-61, 2-amino-6-fluoro-N-(4-(4-(methylsulfonyl)phenyl)pyridin-3-yl)pyrazolo[1,5-a]pyrimidine-3-carboxamide]",+++ (Cisplatin sensitization value of <0.02 μM)
16,"COCCOc1ccncc1NC(=O)c1c(N)nn2cc(CC#N)cnc12 [I-O-29, 2-amino-6-(cyanomethyl)-N-(4-(2-methoxyethoxy)pyridin-3-yl)pyrazolo[1,5-a]pyrimidine-3-carboxamide]",+++ (Cisplatin sensitization value of <0.02 μM)
17,"Nc1nn2cc(F)cnc2c1C(=O)Nc1cncc(F)c1N1CCN2C(=O)OC[C@@H]2C1 [I-N-248, (S)-2-amino-6-fluoro-N-(5-fluoro-4-(3-oxotetrahydro-1H-oxazolo[3,4-a]pyrazin-7(3H)-yl)pyridin-3-yl)pyrazolo[1,5-a]pyrimidine-3-carboxamide]",++ (Cisplatin sensitization value>0.02 μM but <0.2 μM)
18,"CN1CC2(CCC1=O)CCN(c1ccncc1NC(=O)c1c(N)nn3cc(F)cnc13)CC2 [I-N-231, 2-amino-6-fluoro-N-(4-(2-methyl-3-oxo-2,9-diazaspiro[5.5]undecan-9-yl)pyridin-3-yl)pyrazolo[1,5-a]pyrimidine-3-carboxamide]",+++ (Cisplatin sensitization value of <0.02 μM)
19,"Nc1nn2cc(F)cnc2c1C(=O)Nc1cncc(F)c1N1CCC(C(=O)N2CC[C@H](N3CCCC3)C2)CC1 [I-G-58, (S)—N-(4-(4-([1,3′-bipyrrolidine]-1′-carbonyl)piperidin-1-yl)-5-fluoropyridin-3-yl)-2-amino-6-fluoropyrazolo[1,5-a]pyrimidine-3-carboxamide]",+++ (Cisplatin sensitization value of <0.02 μM)
20,"N#CCc1cnc2c(C(=O)Nc3cnccc3OCC3CC3)c(N)nn2c1 [I-O-32, 2-amino-6-(cyanomethyl)-N-(4-(cyclopropylmethoxy)pyridin-3-yl)pyrazolo[1,5-a]pyrimidine-3-carboxamide]",+++ (Cisplatin sensitization value of <0.02 μM)
21,"Nc1nn2cc(F)cnc2c1C(=O)Nc1cncc(F)c1N1CCS(=O)(=O)CC1 [I-N-250, 2-amino-N-(4-(1,1-dioxidothiomorpholino)-5-fluoropyridin-3-yl)-6-fluoropyrazolo[1,5-a]pyrimidine-3-carboxamide]",++ (Cisplatin sensitization value>0.02 μM but <0.2 μM)
22,"Nc1nn2cc(Cl)cnc2c1C(=O)Nc1cnccc1N1CCC(N)CC1 [I-N-86, 2-amino-N-(4-(4-aminopiperidin-1-yl)pyridin-3-yl)-6-chloropyrazolo[1,5-a]pyrimidine-3-carboxamide]",+++ (Cisplatin sensitization value of <0.02 μM)
23,"CN1CCC(N(C)S(=O)(=O)C2CCN(c3c(F)cncc3NC(=O)c3c(N)nn4cc(F)cnc34)CC2)CC1 [I-N-148, 2-amino-6-fluoro-N-(5-fluoro-4-(4-(N-methyl-N-(1-methylpiperidin-4-yl)sulfamoyl)piperidin-1-yl)pyridin-3-yl)pyrazolo[1,5-a]pyrimidine-3-carboxamide]",+++ (Cisplatin sensitization value of <0.02 μM)
24,"Cn1nncc1-c1ccncc1NC(=O)c1c(N)nn2cc(F)cnc12 [I-C-72, 2-amino-6-fluoro-N-(4-(1-methyl-1H-1,2,3-triazol-5-yl)pyridin-3-yl)pyrazolo[1,5-a]pyrimidine-3-carboxamide]",+++ (Cisplatin sensitization value of <0.02 μM)
25,"CC(C)N1CCC(C(=O)N2CCN(c3c(F)cncc3NC(=O)c3c(N)nn4cc(F)cnc34)CC2)C1 (stereo not shown) [I-N-206, 2-amino-6-fluoro-N-(5-fluoro-4-(4-(1-isopropylpyrrolidine-3-carbonyl)piperazin-1-yl)pyridin-3-yl)pyrazolo[1,5-a]pyrimidine-3-carboxamide]",+++ (Cisplatin sensitization value of <0.02 μM)
26,"Nc1nn2cc(F)cnc2c1C(=O)Nc1cncc(F)c1N1CCC(CN2CCOCC2)CC1 [I-N-149, 2-amino-6-fluoro-N-(5-fluoro-4-(4-(morpholinomethyl)piperidin-1-yl)pyridin-3-yl)pyrazolo[1,5-a]pyrimidine-3-carboxamide]",+++ (Cisplatin sensitization value of <0.02 μM)
27,"Nc1nn2cc(F)cnc2c1C(=O)Nc1cnccc1-c1ccc(C(=O)N2CCC(N3CCCC3)CC2)nc1 [I-C-53, 2-amino-6-fluoro-N-(6-(4-(pyrrolidin-1-yl)piperidine-1-carbonyl)-[3,4′-bipyridin]-3′-yl)pyrazolo[1,5-a]pyrimidine-3-carboxamide]",+++ (Cisplatin sensitization value of <0.02 μM)
28,"Nc1nn2cc(F)cnc2c1C(=O)Nc1cnccc1N1CCN(C2CC2)CC1 [I-N-33, 2-amino-N-(4-(4-cyclopropylpiperazin-1-yl)pyridin-3-yl)-6-fluoropyrazolo[1,5-a]pyrimidine-3-carboxamide]",+ (Cisplatin sensitization value>0.2 μM but <5 μM)
